Here are results for one substance from patent US20130237478A1, “COMPOSITIONS AND METHODS FOR TREATMENT OF PERIPHERAL VASCULAR DISEASE” (TARIX PHARMACEUTICALS LTD., priority 2012, published 2013).

One series has as its system hind limb ischemia. In words: Blood flow by non contact laser Doppler in mouse hind limb ischemia model. It counts as in vivo, Balb/c mice. The source says: A stable hind limb ischemia model has been described previously and is generally characterized by uniform ischemic damage useful for examining the effect of various therapies (Goto, et al. Tokai J Exp Clin Med, 31(3):128 2006; Kang Y, et al. PLoS One. 2009; 4(1):e4275)). The hind limb ischemia model in mice used in this example involves two ligations of the proximal end of the femoral artery and its dissection between the two ligatures. The surgery causes obstruction of the blood flow and subsequently leads to severe ischemic damage (Goto, et al.; Kang, et al.). In this experiment, healthy adult female Balb/c mice were used. Hind limb ischemia was induced in mice using protocols previously described. Briefly, Balb/c female mice were maintained on a standard diet with water available ad libitum. Mice were anesthetized and an incision was made in the skin in the inguinal area. The femoral artery was ligated twice with 6-0 silk thread and transected between the ligatures after this the wound was closed with 4-0 silk thread and the mouse was allowed to recover. […]
Blood flow in legs from both sides of the animals was measured with a non contact laser Doppler before surgery and on days: 1, 7, 15, 21, 28, 35, 42 and 49 post operation. Blood flow measurements were expressed as the ratio of the flow in the ischemic limb to that in the normal limb.
The model used in this example is the same as for Example 1. Briefly, the hind limb ischemia model in mice used in this example involves two ligations of the proximal end of the femoral artery and its dissection between the two ligatures. The surgery causes obstruction of the blood flow and subsequently leads to severe ischemic damage (Goto, et al.; Kang, et al.). In this experiment, healthy adult female Balb/c mice were used. Hind limb ischemia was induced in mice using protocols previously described. Briefly, Balb/c female mice were maintained on a standard diet with water available ad libitum. Mice were anesthetized and an incision was made in the skin in the inguinal area. The femoral artery was ligated twice with 6-0 silk thread and transected between the ligatures after this the wound was closed with 4-0 silk thread and the mouse was allowed to recover.
An Angiotensin (1-7) polypeptide composition (PanCyte) and vehicle control (DPBS) were supplied as ready to use solutions and were stored at 4° C. until use. PanCyte was injected subcutaneously (500 μg/kg or 50 μg/kg) daily starting on day 1, 24 hours after inducing ischemia, until the end of the study. Negative control mice were injected subcutaneously with a vehicle.
(§1) The model and procedures used for this example is the same as for those in Examples 1 and 2, unless otherwise specified.
An Angiotensin (1-7) polypeptide composition (PanCyte, cyclized Asp^1-Arg^2-Val^3-Ser^4-Ile^5-His^6-Cys (SEQ ID NO:22)) and vehicle control (DPBS) were supplied as ready to use solutions and were stored at 4° C. until use. In groups 2F-5F, PanCyte was injected subcutaneously (1 μg/kg, 5 μg/kg, 25 μg/kg, 50 μg/kg) daily starting on day 1, 24 hours after inducing ischemia, until the end of the study. In group 6F, an osmotic Alzet pump was implanted subcutaneously and provided for continuous release of PanCyte over the duration of the study. Negative control mice were injected subcutaneously with vehicle (DPBS).

The test system of series [1] is Transient middle cerebral artery occlusion (tMCAO). In words: Body swing test after tMCAO stroke. The class given is in vivo, rats. The following applies: for body swing performance vs vehicle: by Day 28. The protocol: For the purposes of this example, Transient middle cerebral artery occlusion (tMCAO) procedure Day is defined as “Day 1” in this study. On the day of surgery anesthesia were induced with 4% isoflurane in a mixture of 70% N2O and 30% O2 and maintained with 1.5-2% isoflurane.
The tMCAO procedures were performed according to the method described R. Schmid-Elsaesser et al. Briefly, the right CCA (Common Carotid Artery) was exposed through a midline neck incision and carefully dissected free from surrounding nerves and fascia—from its bifurcation to the base of the skull. The occipital artery branches of the ECA (External Carotid Artery) were then isolated, and these branches were dissected and coagulated. The ECA was dissected further distally and coagulated along with the terminal lingual and maxillary artery branches, which was then divided. The ICA (Internal Carotid Artery) was isolated and carefully separated from the adjacent vagus nerve, and the pterygopalatine artery was ligated close to its origin with a 5-0 nylon suture (SMI, Belgium). Next, a 4-0 silk suture was tied loosely around the mobilized ECA stump, and a 4 cm length of 4-0 monofilament nylon suture (the tip of the suture was blunted by using a flame, and the suture was coated with polylysine, prior to insertion) was inserted through the proximal ECA into the ICA and thence into the circle of Willis, effectively occluding the MCA. The surgical wound was closed and the animals were returned to their cages to recover from anesthesia. One hour and a half after occlusion rats were re-anesthetized, the monofilament was withdrawn to allow reperfusion, the surgical wound was closed and rats were returned to their cages.
Animals were subjected to a modified Modified Neurological Rating Scale (mNRS) at 24 hours post reperfusion. Only animals with an overall score of ≧10 were included in this study. Animals were allocated into the test groups, according to the mNRS results on day 2, in order to have similar distribution of rats performance between groups. Starting on day 2, 24 hours post-surgery, animals in groups 4, 5 and 7 were implanted subcutaneously with an osmotic Alzet pump and treated with either 500 μg/kg TXA127, 500 μg/kg PanCyte, or 50 μg/kg Linear PanCyte. Animals in groups 2, 3 and 6 received 500 μg/kg or 1,000 μg/kg TXA127 or 500 μg/kg PanCyte, administered subcutaneously via daily injection. Animals in group 1 were treated with a daily subcutaneous injection of a PBS (vehicle).
Each rat was held approximately one inch from the base of its tail. It was then elevated to an inch above a surface of a table. The rat was held in the vertical axis, defined as no more than 10° to either the left or the right side. A swing was recorded whenever the rat moves its head out of the vertical axis to either side. Before attempting another swing, the rat must return to the vertical position for the next swing to be counted. Twenty (20) total swings were counted. A normal rat typically has an equal number of swings to either side. Following focal ischemia, the rat tends to swing to the contralateral side (left side in this case). Body swing scores are expressed as a percentage of […] over total swings.

Series [2] in a line: Body weight of mice in hind limb ischemia studies. The class given is in vivo, Balb/c mice. The settings on record: throughout the study. The protocol:
Body weight of animals was measured before the surgery and once weekly thereafter.
as §1

Entries after “also recorded” stand apart in the source; their conditions may differ. Positions of bridges follow the written chain, without caps; N, C: chain ends. No end group written: not given here.

“cyclized Asp^1-Arg^2-Val^3-Ser^4-Ile^5-His^6-Cys (SEQ ID NO:22) (DRVSIHC; bridge 4-7; not fully specified; printed as Asp1-Arg2-Val3-Ser4-Ile5-His6-Cys7) [PanCyte, cyclic angiotensin peptide]”: the blood flow restored in the series on hind limb ischemia (Example 2, 50 μg/kg SC) is given as 85 % of its normal values; in the series on hind limb ischemia (Example 2, 500 μg/kg SC), 85 % of its normal values; in the series on hind limb ischemia (Example 3, SC 1-50 μg/kg, dose dependent manner), “up to 84 % of its normal values”. The “improvement in blood flow vs vehicle” value is “statistically significant improvement in blood flow” with hind limb ischemia (Example 2, 50 μg/kg SC daily (3F), from day 21 up to day 49, p<0.05-0.001); “statistically significant improvement in blood flow” in the series with hind limb ischemia (Example 2, 500 μg/kg SC daily (2F), from day 21 up to day 49, p<0.05-0.001); “blood flow improvement reached statistically significance” in the series on hind limb ischemia (Example 3, 1 μg/kg SC daily (2F), days 42 and 49); “blood flow improvement reached statistically significance” with hind limb ischemia (Example 3, 5 μg/kg SC daily (3F), days 42 and 49); “blood flow improvement reached statistically significance” with hind limb ischemia (Example 3, 25 μg/kg SC daily (4F), days 42 and 49); “significant improvement in blood flow” in the series with hind limb ischemia (Example 3, 50 μg/kg SC daily injections (5F), day 35 up to day 49). The “improvement in blood flow vs vehicle” value with hind limb ischemia (Example 3, 50 μg/kg continuous SC by Alzet pump (6F), day 14 up to day 49) is “Statistically significant improvement in blood flow; also recorded: particularly good and early blood perfusion restoration”. Moreover, the “body swing performance vs vehicle” value in series [1] (500 μg/kg SC daily) and in series [1] (500 μg/kg by Alzet pump) was “significant improvement in performance” in each case. In series [1] (500 μg/kg by Alzet pump, by Day 21), the body swing performance entry is given as “showed improvement”. The “body weight vs vehicle” value in series [2] (Example 2, 500 or 50 μg/kg SC daily) is given as “no statistically significant differences”; in series [2] (Example 3, 1-50 μg/kg SC) it was “no statistically significant differences”.
